Measured values: patent US20210352950A1 (priority 2019, published 2021)
“Also recorded” adds a separate entry of the source.

Legend:
HCT116 cells [1] = test: Muse cell viability assay (percentage of dead cells); settings: for effect on STS + vitamin C cytotoxicity: HCT116, STS medium supplemented with transferrin, vitamin C 350 μM
ROS in HCT116 cells = test: CellROX reactive oxygen species measurement; type: cell-based, human; settings: HCT116, GSH one hour prior to vitamin C 1 mM
Description: Intracellular reactive-oxygen species (ROS) were measured using the CellROX oxidative stress reagents (Life Technologies, Cat. #: 10422). CellROX fluorogenic probe is designed to measure reactive-oxygen species (ROS) in live cells. […] For ROS measurement, cells were seeded in 10 cm petri dish (4×10^5 cells in CTR medium). After 24 hours cells were rinsed twice in 1×PBS and CTR or STS medium was added. 24 hours later, cells were trypsinized, resuspended in their respective media, and treated with 1 mM sodium ascorbate and 1 μM CellROX deep red reagent in the dark, for 30 minutes at 37° C. and 5% CO2. Then, fluorescence was immediately analyzed by flow cytometry (Attune NxT flow cytometer). Data were processed by Kaluza analysis software (Beckman coulter, version 2.0). Data were expressed as fold change of the median fluorescent intensity (MFI) of each treated sample versus the MFI of control sample.

[2] = test system: KRAS mutant CRC cells (HCT116, DLD1, CT26.WT); settings: for effect on cell death induction by STS and vitamin C cotreatment: STS condition, GSH 5 mM or NAC 5 mM co-treated with vitamin C 350 μM, 24 hours
HCT116 cells [3] = test: Erythrosin B exclusion assay; type: cell-based, human; settings: HCT116, 24 hours-STS before and during oxaliplatin 40 μM 24 hours
Description: Erythrosin B is a vital dye that is impermeable to biological membranes, thus staining only unviable cells with disintegrated membranes (Kim et al., 2016).
The next day, cells were rinsed twice in 1×PBS and CTR or STS medium was added. […] Cell death was measured by erythrosine B exclusion assay. Cell suspension was diluted 1:1 with erythrosin B 0.1% in PBS (Sigma-Aldrich, Cat. #: 200964), then cells were counted in a Bürker chamber, and percentage of cell death was calculated as the number of Erythrosin B-positive cells with respect to the total number of cells.

HCT116 cells [4] = test: MTT assay; type: cell-based, human; settings: HCT116, 24 hours-STS before and during oxaliplatin 40 μM 24 hours
From the text: The MTT [3-(4,5-Dimethylthiazol-2-yl)-2,5-diphenyltetrazolium bromide] assay is a quantitative colorimetric assay used to determine cell viability (Mosmann, 1983). MTT is characterized by a yellow colour, and upon its reduction to formazan by mitochondrial dehydrogenases, turns into a purple molecule, which has an absorbance peak at 570 nm. The absorbance is proportional to the amount of formazan produced, thus giving a measure of living cells, since the reaction only occur in living and metabolically active cells (Mosmann, 1983).
To evaluate viability, cells were seeded into a 96-well plate (2000 cells per well) in CTR medium. 24 hours later, cells were rinsed twice in 1×PBS, and CTR or STS medium was added. […] At the end of the experiment, medium was removed and cells were incubated with 100 μl of MTT (Sigma-Aldrich, Cat. #: M2128) solution (0.5 mg/ml, dissolved in medium) per well, for 3 hours at 37° C. in the dark. Next, 100 μl of lysis buffer (10% SDS, HCl 0.01M) were added to each well to dissolve formazan crystals and plates were incubated overnight at 37° C. Absorbance was recorded at the wavelength of 570 nm using a microplate reader (Infinite M200 TECAN). The absorbance values of media background were subtracted from the absorbance of each sample. No-treated samples were used as reference values (100% survival) to normalize the absorbance of treated samples.

FTH = FTH protein expression in cells (western blot); type: cell-based, human and murine; settings: HCT116, CTR and STS, hemin 20 μM 12 hours
Description: Cells were washed twice in ice-cold PBS and lysates were prepared in RIPA lysis buffer (50 mM Tris HCl pH 7.4, 150 mM NaCl, 1% NP-40, 0.25% deoxycholic acid, 1 mM EDTA) supplemented with protease and phosphatase inhibitors (protease inhibitor cocktail set III EDTA-free, Calbiochem, Cat. #: S39134; PhosStop, Roche), Samples were sonicated (bioruptor plus, diogenode) and centrifuged at 16.1 g for 30 minutes at 4° C. Tumor tissues were collected and snap frozen in liquid nitrogen immediately after mice were sacrificed, and stored in -80° C. until use. […] Protein concentrations were determined by BCA assay (Thermo Fisher Scientific, Cat. #: 23225). Proteins were diluted in 1× Laemmli sample buffer, boiled at 95° C. for 5 minutes and 30 μg of total proteins were separated by using SDS-PAGE and analyzed by western blotting by standard procedures. […] Membranes were incubated overnight at 4° C. with gentle shaking with the following primary antibodies: […] ADI-SPA894), FTH (1:1000, Cell Signaling, Cat. #: 3998), AMPK (1:1000, Cell Signaling, Cat. #: 2532), phospho-[…] AMPK (1:1000, Cell Signaling, Cat. #: 2535), eIF2a (1:1000, Cell signaling, Cat. #: 5324), phospho […] eIF2a (1:1000, Cell signaling, Cat. #: 3597), AKT (1:1000, Cell Signaling, Cat. #: 9272), phospho-[…] […] Bands intensity was quantified with NIH Image J software (version 1.48v).

HO-1 = HO-1 expression in HCT116 (qPCR, western blot); type: cell-based, human; settings: HCT116, CTR and STS, hemin 20 μM 12 hours
Description: Cells were washed twice in ice-cold PBS and lysates were prepared in RIPA lysis buffer (50 mM Tris HCl pH 7.4, 150 mM NaCl, 1% NP-40, 0.25% deoxycholic acid, 1 mM EDTA) supplemented with protease and phosphatase inhibitors (protease inhibitor cocktail set III EDTA-free, Calbiochem, Cat. #: S39134; PhosStop, Roche), Samples were sonicated (bioruptor plus, diogenode) and centrifuged at 16.1 g for 30 minutes at 4° C. Tumor tissues were collected and snap frozen in liquid nitrogen immediately after mice were sacrificed, and stored in -80° C. until use. […] Protein concentrations were determined by BCA assay (Thermo Fisher Scientific, Cat. #: 23225). Proteins were diluted in 1× Laemmli sample buffer, boiled at 95° C. for 5 minutes and 30 μg of total proteins were separated by using SDS-PAGE and analyzed by western blotting by standard procedures. […] Membranes were incubated overnight at 4° C. with gentle shaking with the following primary antibodies: […] ADI-SPA894), FTH (1:1000, Cell Signaling, Cat. #: 3998), AMPK (1:1000, Cell Signaling, Cat. #: 2532), phospho-[…] […] Bands intensity was quantified with NIH Image J software (version 1.48v). […] Resulting cDNA (1/20 v/v) was analyzed by real-time polymerase reaction (qRT-PCR) using TaqMan MBG probes with FAM reporter dyes. […]

Molecule: CC(=O)N(O)CCCCCNC(=O)CCC(=O)N(O)CCCCCNC(=O)CCC(=O)N(O)CCCCCN [DFO, desferrioxamine]
- effect on vitamin C-induced cytotoxicity (HCT116 cells [1]; HCT116, STS, DFO 500 μM pre-treatment, cells washed before vitamin C 350 μM): rescued vitamin C-induced cell cytotoxicity

Molecule: N[C@@H](CCC(=O)N[C@@H](CS)C(=O)NCC(=O)O)C(=O)O [GSH, glutathione]
- effect on increase in ROS mediated by STS and STS+vitamin C (ROS in HCT116 cells): fully reversed the increase in ROS
- effect on cell death induction by STS and vitamin C cotreatment [2]: able to revert the massive cell death induction

Molecule: CC(=O)N[C@@H](CS)C(=O)O [NAC, N-acetyl cysteine]
- effect on cell death induction by STS and vitamin C cotreatment [2]: able to revert the massive cell death induction

Molecule: C=CC1=C(C)c2cc3[n-]c(cc4nc(cc5[n-]c(cc1n2)c(C)c5C=C)C(C)=C4CCC(=O)O)c(CCC(=O)O)c3C.[Zn+2] [ZnPP, zinc protoporphyrin]
- susceptibility to vitamin C toxicity ([2]; control medium, ZnPP 20 μM 3 hours before vitamin C 700 μM 24 hours): more susceptible to vitamin C toxicity

Molecule: O=C1[O][Pt]2([NH][C@@H]3CCCC[C@H]3[NH]2)[O]C1=O [oxaliplatin]
- percentage of cell death (HCT116 cells [3]): increase the percentage of cell death
- percentage of metabolically active cells (MTT) (HCT116 cells [4]): significantly decrease the percentage of metabolically active cells

Molecule: MnTMPyP
- effect on cell death upon STS + vitamin C (HCT116 cells [1]; HCT116, STS, MnTMPyP 50 μM before vitamin C 350 μM 24 hours): inhibited cell death upon combinatorial treatment

Molecule: apo-transferrin: iron-free transferrin
- effect on STS + vitamin C cytotoxicity (HCT116 cells [1]): not

Molecule: hemin
- FTH protein expression level (FTH): increases
- HO-1 protein expression level (HO-1): increases
- effect on cancer cell death induced by vitamin C alone or with STS ([2]; hemin 20 μM 3 hours before vitamin C 350 μM, CTR or STS): able to reverse cancer cell death

Molecule: holo-transferrin: Iron bound-transferrin
- effect on STS + vitamin C cytotoxicity (HCT116 cells [1]): able to rescue the observed cytotoxicity; also recorded: reversed STS+vitamin C-mediated toxicity

B1: catalase: Catalase from bovine liver, membrane-impermeable ROS scavenger decomposing hydrogen peroxide (protein, UniProt P00432 2-527, looked up)
Catalase: ADNRDPASDQMKHWKEQRAAQKPDVLTTGGGNPVGDKLNSLTVGPRGPLLVQDVVFTDEMAHFDRERIPERVVHAKGAGAFGYFEVTHDITRYSKAKVFEHIGKRTPIAVRFSTVAGESGSADTVRDPRGFAVKFYTEDGNWDLVGNNTPIFFIRDALLFPSFIHSQKRNPQTHLKDPDMVWDFWSLRPESLHQVSFLFSDRGIPDGHRHMNGYGSHTFKLVNANGEAVYCKFHYKTDQGIKNLSVEDAARLAHEDPDYGLRDLFNAIATGNYPSWTLYIQVMTFSEAEIFPFNPFDLTKVWPHGDYPLIPVGKLVLNRNPVNYFAEVEQLAFDPSNMPPGIEPSPDKMLQGRLFAYPDTHRHRLGPNYLQIPVNCPYRARVANYQRDGPMCMMDNQGGAPNYYPNSFSAPEHQPSALEHRTHFSGDVQRFNSANDDNVTQVRTFYLKVLNEEQRKRLCENIAGHLKDAQLFIQKKAVKNFSDVHPEYGSRIQALLDKYNEEKPKNAVHTYVQHGSHLSAREKANL
- effect on STS-mediated sensitization to vitamin C (HCT116 cells [1]; HCT116, STS, catalase 50 U/ml prior to vitamin C 350 μM 24 hours): able to revert STS-mediated sensitization to vitamin C
